Measurements from US5496835A, “Heterocyclic compounds having angiotensin II antagonistic activity and use thereof” (Takeda Chemical Industries, Ltd., priority 1992, dated 1996).

Columns and labels:
[1] = target: T1, AII receptor (Bos taurus, UniProt P25104); test: Inhibition of binding of 125I-angiotensin II to AII receptor membrane fraction; settings: bovine adrenal cortex membrane fraction, 125I-AII, read-out: Binding-inhibitory action (rate) %; for inhibition at 1 µM: compound 10^-6 M; for inhibition at 0.1 µM: compound 10^-7 M
T1 construct: An AII receptor membrane fraction was prepared from bovine adrenal cortex; from tissue; host or cells: bovine adrenal cortex, membrane fraction
T1 sequence (P25104 1-359): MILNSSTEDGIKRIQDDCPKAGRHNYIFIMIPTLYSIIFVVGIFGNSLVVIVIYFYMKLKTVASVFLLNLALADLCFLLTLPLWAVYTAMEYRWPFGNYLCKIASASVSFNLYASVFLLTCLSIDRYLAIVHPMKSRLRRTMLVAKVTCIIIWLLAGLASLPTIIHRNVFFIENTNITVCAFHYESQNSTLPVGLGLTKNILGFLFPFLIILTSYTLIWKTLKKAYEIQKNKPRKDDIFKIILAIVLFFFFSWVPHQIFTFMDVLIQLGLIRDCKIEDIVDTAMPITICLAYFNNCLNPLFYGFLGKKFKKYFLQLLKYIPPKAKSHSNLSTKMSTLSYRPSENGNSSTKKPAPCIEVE
Method: An experiment of inhibition on the binding of angiotensin II (AII) to AII receptor was conducted by modifying the method of Douglas et al. [Endocrinology, 102, 685-696 (1978)]. An AII receptor membrane fraction was prepared from bovine adrenal cortex.
The compound of the present invention (10^-6 M or 10^-7 M) and ^125 I-angiotensin II (^125 I-AII) (2.44kBq/50 μl) were added to the receptor membrane fraction, and the mixture was incubated at room temperature for one hour. The receptor-bound and free ^125 I-AII were separated through a filter (Whatman GF/B filter), and the radioactivity of ^125 I-AII bound to the receptor was determined.

[2] = tested on: pressor action of AII; test: Inhibitory effect on pressor action of AII in rats after oral administration; assay type: in vivo, Jcl:SD rats; settings: 1 mg/kg p.o., percent inhibition of pressor action of AII 100 ng/kg i.v.
Method: Jcl:SD rats (9 week old, male) were used. On the previous day of the experiment, these animals were applied with cannulation into the femoral artery and vein under anesthesia with pentobarbital Na. These animals were fasted but allowed to access freely to drinking water until the experiment was started. Just on the day of conducting the experiment, the artery cannula was connected with a blood-pressure transducer, and the average blood pressure was recorded by means of polygraph. Before administration of the drug, the pressor action due to intravenous administration of AII (100 ng/kg) as the control was determined. The drugs were orally administered, then, at each point of the determination, AII was administered intravenously, and the pressor action was similarly determined. By comparing the pressor action before and after administration of the drug, the percent inhibition by the drug was evaluated.

SMILES | inhibition at 1 µM [1] | inhibition at 0.1 µM [1] | Pressor-inhibitory action [2]
CCCCc1n[nH]c(C(=O)O)c1Cc1ccc(-c2ccccc2-c2nc(=O)o[nH]2)cc1 [Working Example 2, 3-Butyl-4-[2'-(2,5-dihydro-5-oxo-1,2,4-oxadiazol-3-yl)biphenyl-4-yl]methylpyrazole-5-carboxylic acid] | 68% | 30% | + (50% > +-)
CCCCc1nn(-c2ccccc2Cl)c(C(=O)O)c1Cc1ccc(-c2ccccc2-c2noc(=O)[nH]2)cc1 [compound 6] | 32% |  | ++ (70% > ++ ≥ 50%)
CCCCc1nn(-c2ccccc2Cl)c(C(=O)O)c1Cc1ccc(-c2ccccc2-c2nsc(=O)[nH]2)cc1 [compound 8] | 37% |  | +++ (+++ ≥ 70%)
CCCCc1n[nH]c(C(=O)OC)c1Cc1ccc(-c2ccccc2-c2nsc(=O)[nH]2)cc1 [compound 3] | 17% | 7% | +++ (+++ ≥ 70%)
